Experimental data reported in ChEMBL document CHEMBL1697781, “Assessment of the health effects of chemicals in humans: II. Construction of an adverse effects database for QSAR modeling” (Curr Drug Discov Technol, 2004).

Key:
Conditions in all cases: human; call rule not given here
Hepatotoxicity [1] = experiment: FDA HLAED, serum glutamic pyruvic transaminase (SGPT) increase
Hepatotoxicity [2] = experiment: FDA HLAED, alkaline phosphatase increase
Hepatotoxicity [3] = experiment: FDA HLAED, lactate dehydrogenase (LDH) increase
Hepatotoxicity [4] = experiment: FDA HLAED, liver enzyme composite activity
Hepatotoxicity [5] = experiment: FDA HLAED, gamma-glutamyl transferase (GGT) increase
Hepatotoxicity [6] = experiment: FDA HLAED, serum glutamic oxaloacetic transaminase (SGOT) increase
Throughout, for GGT Increase - Index Value: reference of the scale not given here.
Throughout, for LDH Increase - Index Value: reference of the scale not given here.

Row | Structure (SMILES) | SGPT Increase - Activity Score (Hepatotoxicity [1]) | SGPT Increase - Index Value (Hepatotoxicity [1]) | SGPT Increase - Number of Reports (Hepatotoxicity [1]) | Alkaline Phosphatase Increase - Activity Score (Hepatotoxicity [2]) | Alkaline Phosphatase Increase - Index Value (Hepatotoxicity [2]) | Alkaline Phosphatase Increase - Number of Reports (Hepatotoxicity [2]) | LDH Increase - Activity Score (Hepatotoxicity [3]) | LDH Increase - Index Value (Hepatotoxicity [3]) | LDH Increase - Number of Reports (Hepatotoxicity [3]) | Composite Activity - Active (Hepatotoxicity [4]) | Composite Activity - Marginal (Hepatotoxicity [4]) | Composite Activity - Score (Hepatotoxicity [4]) | GGT Increase - Activity Score (Hepatotoxicity [5]) | GGT Increase - Index Value (Hepatotoxicity [5]) | GGT Increase - Number of Reports (Hepatotoxicity [5]) | SGOT Increase - Activity Score (Hepatotoxicity [6]) | SGOT Increase - Index Value (Hepatotoxicity [6]) | SGOT Increase - Number of Reports (Hepatotoxicity [6]) | further results
1 | COc1c(C)c2c(c(O)c1C/C=C(\C)CCC(=O)O)C(=O)OC2 [MYCOPHENOLIC ACID] | Active | 9.6 | >= 4 | Inactive | 5.7 | < 4 | Inactive | 1.9 | < 4 | 1 | 0 | Inactive | Inactive | 3.8 | < 4 | Inactive | 3.8 | < 4 | 
2 | CCCCCCC(C)(C)c1cc(O)c2c(c1)OC(C)(C)C1CCC(=O)CC21 (stereo unspecified) [NABILONE] | Inactive | 0 | < 4 | Inactive | 0 | < 4 | Inactive | 0 | < 4 | 0 | 0 | Inactive | Inactive | 0 | < 4 | Inactive | 0 | < 4 | 
3 | COc1ccc2cc(CCC(C)=O)ccc2c1 [NABUMETONE] | Inactive | 0.6 | >= 4 | Inactive | 0.8 | >= 4 | Inactive | 0.3 | >= 4 | 0 | 0 | Inactive | Inactive | 0.5 | >= 4 | Inactive | 0.6 | >= 4 | 
4 | CC(C)(C)NCC(O)COc1cccc2c1CC(O)C(O)C2 (stereo unspecified) [NADOLOL] | Inactive | 0.7 | >= 4 | Inactive | 0.3 | < 4 | Inactive | 0 | < 4 | 0 | 0 | Inactive | Inactive | 0 | < 4 | Inactive | 0.7 | >= 4 | 
5 | CN(C/C=C/c1ccccc1)Cc1cccc2ccccc12 [NAFTIFINE] | Inactive | 0 | < 4 | Inactive | 0 | < 4 | Inactive | 0 | < 4 |  |  |  | Inactive | 0 | < 4 | Inactive | 0 | < 4 | Composite Activity - Active (Hepatotoxicity [4]; Liver): 0; Composite Activity - Marginal (Hepatotoxicity [4]; Liver): 0; Composite Activity - Score (Hepatotoxicity [4]; Liver): Inactive
6 | Oc1ccc2c3c1O[C@H]1[C@@H](O)CC[C@@]4(O)[C@@H](C2)N(CC2CCC2)CC[C@]314 [NALBUPHINE] | Inactive | 0 | < 4 | Inactive | 0 | < 4 | Inactive | 0 | < 4 | 0 | 0 | Inactive | Inactive | 0 | < 4 | Inactive | 0 | < 4 | 
7 | O=C1CC[C@@]2(O)[C@H]3Cc4ccc(O)c5c4[C@@]2(CCN3CC2CC2)[C@H]1O5 [NALTREXONE] | Inactive | 23.3 | < 4 | Inactive | 0 | < 4 | Inactive | 0 | < 4 | 0 | 0 | Inactive | Inactive | 0 | < 4 | Inactive | 0 | < 4 | 
8 | COc1ccc2cc([C@H](C)C(=O)O)ccc2c1 [NAPROXEN] | Inactive | 0 | < 4 | Inactive | 0.1 | < 4 | Inactive | 0 | < 4 |  |  |  | Inactive | 0.1 | < 4 | Inactive | 0.1 | >= 4 | Composite Activity - Active (Hepatotoxicity [4]; Liver): 0; Composite Activity - Marginal (Hepatotoxicity [4]; Liver): 0; Composite Activity - Score (Hepatotoxicity [4]; Liver): Inactive
9 | CCCc1c2oc(C(=O)O)cc(=O)c2cc2c(=O)cc(C(=O)O)n(CC)c12 [NEDOCROMIL] | Inactive | 0.3 | < 4 | Inactive | 0 | < 4 | Inactive | 0.3 | < 4 | 0 | 0 | Inactive | Inactive | 0 | < 4 | Inactive | 0.5 | < 4 | 
10 | CCc1nn(CCCN2CCN(c3cccc(Cl)c3)CC2)c(=O)n1CCOc1ccccc1 [NEFAZODONE] | Marginally Active | 3.3 | >= 4 | Inactive | 1.1 | >= 4 | Inactive | 1.1 | >= 4 | 0 | 2 | Inactive | Inactive | 1.1 | >= 4 | Marginally Active | 3.6 | >= 4 | 
11 | CCN[C@@H]1C[C@H](N)[C@@H](O[C@H]2OC(CN)=CC[C@H]2N)[C@H](O)[C@H]1O[C@H]1OC[C@](C)(O)[C@H](NC)[C@H]1O [NETILMICIN] | Inactive | 0 | < 4 | Inactive | 0 | < 4 | Inactive | 0 | < 4 | 0 | 0 | Inactive | Inactive | 0 | < 4 | Inactive | 0 | < 4 | 
12 | Cc1ccnc2c1NC(=O)c1cccnc1N2C1CC1 [NEVIRAPINE] | Active | 55 | >= 4 | Active | 27.5 | >= 4 | Active | 34.4 | >= 4 | 5 | 0 | Active | Active | 41.2 | >= 4 | Active | 68.7 | >= 4 | 
